Patent US5300491A, “Treatment of protozoal infection” (priority 1992, dated 1994)
Bridge positions count the residues as written; N and C are the ends. Square brackets hold non-standard residues; d marks the D form. Peptide text beside a SMILES is read from it. * marks the point of attachment. Ileψ(thiazoline)Cys = CC[C@H](C)[C@H](N)C1=N[C@H](C(=O)*)CS1; dOrn = NCCC[C@@H](N)C(=O)O

Test system: Trichomonas vaginalis
Experiment: Trichomonas vaginalis assay (MLC, aerobic and anaerobic)
Assay type: cell-based
Settings: for MLCs: span over metronidazole-sensitive isolates, converted from IU/ml
Experimental: All isolates were treated with either bacitracin or zinc bacitracin.
Prior to being diluted with the medium, the bacitracins were initially solubilized in water to 250 mg/ml. The zinc salt was solubilized in acidified water (60 μl HC1/ml). Duplicate plates of each isolate were prepared. one set of plates was exposed to an aerobic environment; and, the second set was exposed to an anaerobic environment. An Oxoid HP 11 anaerobic gas chamber and BR 38 gas generating kit were used to produce the anaerobic environment.

[1] = isolate 1031, metronidazole-sensitive, aerobic
[2] = isolate 1031, metronidazole-sensitive, anaerobic
[3] = isolate 1043, metronidazole-sensitive, aerobic
[4] = isolate 1043, metronidazole-sensitive, anaerobic
[5] = isolate 1044, metronidazole-sensitive, aerobic
[6] = isolate 1044, metronidazole-sensitive, anaerobic
[7] = isolate 1064, metronidazole-sensitive, aerobic
[8] = isolate 1064, metronidazole-sensitive, anaerobic
[9] = isolate 1065, metronidazole-sensitive, aerobic
[10] = isolate 1065, metronidazole-sensitive, anaerobic
[11] = isolate 1165, metronidazole-sensitive, aerobic
[12] = isolate 1165, metronidazole-sensitive, anaerobic
[13] = isolate 1910, metronidazole-sensitive, aerobic
[14] = isolate 1910, metronidazole-sensitive, anaerobic
[15] = isolate 6950, metronidazole-sensitive, aerobic
[16] = isolate 6950, metronidazole-sensitive, anaerobic
[17] = isolate 89532.2, metronidazole-insensitive, aerobic
[18] = isolate 89532.2, metronidazole-insensitive, anaerobic
[19] = isolate 90576, metronidazole-insensitive, aerobic
[20] = isolate 90576, metronidazole-insensitive, anaerobic
[21] = isolate CDC85, metronidazole-insensitive, aerobic
[22] = isolate CDC85, metronidazole-insensitive, anaerobic
[23] = isolate IR78, metronidazole-insensitive, aerobic
[24] = isolate IR78, metronidazole-insensitive, anaerobic
[25] = isolate PHLS289, metronidazole-insensitive, aerobic
[26] = isolate PHLS289, metronidazole-insensitive, anaerobic
[27] = isolate STH-1, metronidazole-insensitive, aerobic
[28] = isolate STH-1, metronidazole-insensitive, anaerobic
[29] = isolate UCH-1, metronidazole-sensitive, aerobic
[30] = isolate UCH-1, metronidazole-sensitive, anaerobic
[31] = isolate UCH-2, metronidazole-sensitive, aerobic
[32] = isolate UCH-2, metronidazole-sensitive, anaerobic
[33] = isolate UCH-M1, metronidazole-sensitive, aerobic
[34] = isolate UCH-M1, metronidazole-sensitive, anaerobic
[35] = isolate UOB-1, metronidazole-sensitive, aerobic
[36] = isolate UOB-1, metronidazole-sensitive, anaerobic

CC[C@H](C)[C@H](N)C1=N[C@H](C(=O)N[C@@H](CC(C)C)C(=O)N[C@H](CCC(=O)O)C(=O)N[C@H](C(=O)N[C@H]2CCCCNC(=O)[C@H](CC(N)=O)NC(=O)[C@@H](CC(=O)O)NC(=O)[C@H](Cc3cnc[nH]3)NC(=O)[C@@H](Cc3ccccc3)NC(=O)[C@H]([C@@H](C)CC)NC(=O)[C@@H](CCCN)NC2=O)[C@@H](C)CC)CS1 [Bacitracin, reference compound] ({Ileψ(thiazoline)Cys}-L[dE]IK[dOrn]I[dF]H[dD]N; lactam 4-C)
1500 IU/ml: MLC [7] | MLC [8] | MLC [21]
2500 IU/ml: MLC [3] | MLC [19] | MLC [26] | MLC [31] | MLC [32]
2000 IU/ml: MLC [1] | MLC [2] | MLC [4] | MLC [5] | MLC [6] | MLC [9] | MLC [10] | MLC [11] | MLC [12] | MLC [13] | MLC [14] | MLC [15] | MLC [16] | MLC [17] | MLC [18] | MLC [20] | MLC [22] | MLC [23] | MLC [24] | MLC [25] | MLC [27] | MLC [28] | MLC [29] | MLC [30] | MLC [33] | MLC [34] | MLC [35] | MLC [36]
21.44-35.71 mg/mi: MLCs

Zinc bacitracin
3.13 to 5.47 mg/mL: MLCs
350 IU/ml: MLC [2] | MLC [3] | MLC [4] | MLC [11] | MLC [14] | MLC [15] | MLC [17] | MLC [18] | MLC [20] | MLC [21] | MLC [22] | MLC [28] | MLC [31]
200 IU/ml: MLC [25]
300 IU/ml: MLC [6] | MLC [8] | MLC [9] | MLC [23] | MLC [24]
250 IU/ml: MLC [1] | MLC [5] | MLC [7] | MLC [12] | MLC [19] | MLC [26] | MLC [27] | MLC [33] | MLC [34]
400 IU/ml: MLC [10] | MLC [13] | MLC [16] | MLC [29] | MLC [30] | MLC [32] | MLC [35] | MLC [36]
